The text below walks through data of patent publication US9120839B2, “Ursolic acid derivative and method for preparing same” (Nexoligo Co., Ltd., priority 2012, dated 2015).

The AUC(0-t) is the area under the concentration-time curve up to a stated or last time point. Read a low AUC(0-t) as low exposure. The term Cmax denotes the peak of the concentration-time curve.

Read-outs that look alike come from different tables or passages of the source.

A short description of data set [1]: Pharmacokinetic animal test on Sprague Dawley (SD) rat, ursolic acid concentration in blood plasma. Format: in vivo. The following applies: male, intravenous administration, dose 0.5 (mg/kg per Table 1), SD rats. The method, then: Pharmacokinetic Animal Test on Sprague Dawley (SD) Rat, Using Ursolic Acid and Ursolic Acid Derivatives of Examples
• Ursolic acid derivative of Examples (5-methyl-2-oxo-1,3-dioxole-4-yl)methyl 3β-hydroxyl-urs-12-en-28-oate was used.
The ursolic acid was single-intravenously administered on SD rats and the ursolic acid derivative of Example 2 was orally administered, then blood collection was performed each time, and concentration of the test substance in blood was analyzed. Accordingly, bioavailability of the ursolic acid and ursolic acid derivatives of Examples were measured and compared with each other.
i) Control substance (Intravenous Administration): Ursolic Acid (UA) (HPLC purity of 99.0% or more/area percentage)
ii) Test substance (Oral Administration) Ursolic acid derivative of Example 2 (HPLC purity of 99.4% or more/area percentage)
The control substance for intravenous administration was diluted with 0.9% saline which was sterilized and sealed to be prepared in 0.5 mg/mL. […]
(3) Calculation of Injection Amount: The injection amount was calculated to be 1.0 or 2.0 mL/kg, on the basis of the recently measured body weight before the administration. […]
Concentration of ursolic acid in the blood plasma of the rats was measured. […]

The conditions of data set [2]: background statement on ursolic acid; cited from earlier work.
For data set [3] the following is noted: rats, from Paper 1; cited from earlier work.

Consider `C[C@H]1[C@H](C)CC[C@]2(C(=O)O)CC[C@]3(C)C(=CC[C@@H]4[C@@]5(C)CC[C@H](O)C(C)(C)[C@@H]5CC[C@]43C)[C@H]12` [Ursolic Acid, 3β-hydroxy-urs-12-en-28-oic acid], for which, in data set [1], the AUC(0-t) was determined as 114 ng·h/mL and the highest concentration (Cmax) turned out to be 378 ng/mL. The oral absorptivity result in data set [2] is “less than 1%”.

As for `CC1(C)CC[C@]2(C(=O)O)CC[C@]3(C)C(=CC[C@@H]4[C@@]5(C)CC[C@H](O)C(C)(C)[C@@H]5CC[C@]43C)[C@@H]2C1` [oleanolic acid], the oral absorptivity entry in data set [3] is listed as “about 0.7%”.
